In patent publication US8975417B2, “Pyrazolopyrrolidine derivatives and their use in the treatment of disease” (Novartis AG, priority 2013, dated 2015):
pIC50: −log10 of the molar value.

What was measured:
His-Brd4(44-477) = His-Brd4(44-477) (Homo sapiens (Human), UniProt O60885); experiment: TR-FRET in-vitro binding assay for BRD4; conditions: biochemical
Method in brief: (§1)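 Eight-point dilution series tested against in-house His-BRD2(60-472), BRD3(20-477) or BRD4(44-477) (45 nM in dispensed solution) binding acetyl-histone H4 (AcK5,8,12,16; 60 nM in dispensed solution). Incubation 35 min at 30 °C, pH 7.5 HEPES buffer; detection by TR-FRET using Eu-anti-His6 and streptavidin-allophycocyanin.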

His-Brd3(20-477) = His-Brd3(20-477) (Homo sapiens (Human), UniProt Q15059); experiment: TR-FRET in-vitro binding assay for BRD3; conditions: biochemical
Method in brief: as §1

[1] = molecular target: nuclear BRD4-NUT foci in HCC2494 NUT midline carcinoma cells (Homo sapiens (Human), UniProt O60885+Q86Y26); experiment: Nut-foci formation assay; format: cell-based; conditions: 24 hours, read-out: HCS Brd4-NUT IC50
Method in brief: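 Read-out is number and intensity of nuclear NUT foci by immunofluorescence imaging, relative to 0.1% DMSO set as 100. Compounds were tested as 3-fold series starting at 10 μM on HCC2494 NUT midline carcinoma cells for 24 h. Four-parameter fitting gave IC50.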

Chain of His-Brd3(20-477) (Q15059 20-477): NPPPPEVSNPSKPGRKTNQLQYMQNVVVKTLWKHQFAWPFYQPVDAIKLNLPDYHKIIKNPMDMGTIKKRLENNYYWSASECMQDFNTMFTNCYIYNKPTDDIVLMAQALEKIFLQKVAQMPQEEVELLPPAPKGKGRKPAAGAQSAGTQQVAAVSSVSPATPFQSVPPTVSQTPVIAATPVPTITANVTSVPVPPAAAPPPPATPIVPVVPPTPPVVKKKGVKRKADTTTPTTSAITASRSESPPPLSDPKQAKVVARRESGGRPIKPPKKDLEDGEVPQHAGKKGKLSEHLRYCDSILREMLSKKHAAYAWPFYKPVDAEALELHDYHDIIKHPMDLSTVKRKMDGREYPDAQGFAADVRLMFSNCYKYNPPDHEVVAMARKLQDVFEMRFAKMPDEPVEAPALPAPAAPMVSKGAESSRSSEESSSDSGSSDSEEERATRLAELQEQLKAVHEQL

pIC50 (His-Brd4(44-477)) | pIC50 (His-Brd3(20-477)) | pIC50 [1] | SMILES
7.23 | 7.26 | 6.64 | Cc1nn(C2CC2)c2c1C(c1ccc(Cl)cc1)N(c1ccc3nnn(C)c3n1)C2=O (stereo not drawn) [Example 102, 4-(4-chlorophenyl)-1-cyclopropyl-3-methyl-5-(3-methyl-3H-[1,2,3]triazolo[4,5-b]-pyridin-5-yl)-4,5-dihydropyrrolo[3,4-c]pyrazol-6(1H)-one]
4.96 | 5.21 | < 5.00 | Cc1nn(C(C)C)c2c1[C@H](c1ccc(Cl)cc1)N(c1cc(C)c(=O)n(C)c1)C2=O [Example 103, (S)-4-(4-chlorophenyl)-5-(1,5-dimethyl-6-oxo-1,6-dihydropyridin-3-yl)-1-isopropyl-3-methyl-4,5-dihydropyrrolo[3,4-c]pyrazol-6(1H)-one]
7.89 | 7.82 | 7.95 | Cc1nn(C(C)C)c2c1[C@@H](c1ccc(Cl)cc1)N(c1cc(C)c(=O)n(C)c1)C2=O [Example 104, (R)-4-(4-chlorophenyl)-5-(1,5-dimethyl-6-oxo-1,6-dihydropyridin-3-yl)-1-isopropyl-3-methyl-4,5-dihydropyrrolo[3,4-c]pyrazol-6(1H)-one]
7.17 | 6.82 | 7.01 | CCc1nn(C)c2c1C(c1ccc(Cl)cc1)N(c1cc(OC)c3nnc(C)n3c1)C2=O (stereo not drawn) [Example 105, 4-(4-chlorophenol)-3-ethyl-5-(8-methoxy-3-methyl-[1,2,4]triazolo[4,3-a]pyridin-6-yl)-1-methyl-4,5-dihydropyrrolo[3,4-c]pyrazol-6(1H)-one]
5.66 | 5.36 | 5.65 | CCc1nn(C2CC2)c2c1[C@H](c1ccc(Cl)cc1)N(c1cc(C)c3nnc(C)n3c1)C2=O [Example 106, (S)-4-(4-chlorophenyl)-1-cyclopropyl-5-(3,8-dimethyl-[1,2,4]triazolo[4,3-a]pyridin-6-yl)-3-ethyl-4,5-dihydropyrrolo[3,4-c]pyrazol-6(1H)-one]
> 7.96 | 7.89 | 8.54 | CCc1nn(C2CC2)c2c1[C@@H](c1ccc(Cl)cc1)N(c1cc(C)c3nnc(C)n3c1)C2=O [Example 107, (R)-4-(4-chlorophenyl)-1-cyclopropyl-5-(3,8-dimethyl-[1,2,4]triazolo[4,3-a]pyridin-6-yl)-3-ethyl-4,5-dihydropyrrolo[3,4-c]pyrazol-6(1H)-one]
6.85 | 6.55 | 6.20 | CCc1nn(CCOCC(F)(F)F)c2c1C(c1ccc(Cl)cc1)N(c1cc(OC)c3nnc(C)n3c1)C2=O (stereo not drawn) [Example 108, 4-(4-chlorophenyl)-3-ethyl-5-(8-methoxy-3-methyl-[1,2,4]triazolo[4,3-a]pyridin-6-yl)-1-(2-(2,2,2-trifluoroethoxy)ethyl)-4,5-dihydropyrrolo[3,4-c]pyrazol-6(1H)-one]
7.77 | 7.57 | 7.36 | COc1ncccc1-n1nc(C)c2c1C(=O)N(c1cc(C)c3nnn(C)c3n1)C2c1ccc(Cl)cc1 (stereo not drawn) [Example 109, 4-(4-chlorophenyl)-5-(3,7-dimethyl-3H-[1,2,3]triazolo[4,5-b]pyridin-5-yl)-1-(2-methoxypyridin-3-yl)-3-methyl-4,5-dihydropyrrolo[3,4-c]pyrazol-6(1H)-one]
7.92 | 7.85 | 8.19 | Cc1nn(C2CC2)c2c1C(c1ccc(Cl)cc1)N(c1cc(C)c3nnn(C)c3n1)C2=O (stereo not drawn) [Example 110, 4-(4-chlorophenyl)-1-cyclopropyl-5-(3,7-dimethyl-3H-[1,2,3]triazolo[4,5-b]pyridin-5-yl)-3-methyl-4,5-dihydropyrrolo[3,4-c]pyrazol-6(1H)-one]
7.77 | 7.62 | 7.46 | COc1ncccc1-n1nc(C)c2c1C(=O)N(c1cc(C)c3nnc(C)n3n1)C2c1ccc(Cl)cc1 (stereo not drawn) [Example 111, 4-(4-chlorophenyl)-5-(3,8-dimethyl-[1,2,4]triazolo[4,3-b]pyridazin-6-yl)-1-(2-methoxypyridin-3-yl)-3-methyl-4,5-dihydropyrrolo[3,4-c]pyrazol-6(1H)-one]
< 4.43 | < 4.43 | 5.47 | Cc1nn(C2CC2)c2c1C(c1ccc(Cl)cc1)N(c1cc(N(C)C(=O)OC(C)(C)C)c3nnc(C)n3n1)C2=O (stereo not drawn) [Example 112, tert-butyl (6-(4-(4-chlorophenyl)-1-cyclopropyl-3-methyl-6-oxopyrrolo[3,4-c]pyrazol-5(1H,4H,6H)-yl)-3-methyl-[1,2,4]triazolo[4,3-b]pyridazin-8-yl)(methyl)carbamate]

Further lines, the compound ahead of its results:

SMILES | pIC50 (His-Brd4(44-477)) | pIC50 (His-Brd3(20-477)) | pIC50 [1]
CCc1nn(C2CC2)c2c1C(c1ccc(Cl)cc1)N(c1cc(OC)c3nnc(C)n3c1)C2=O (stereo not drawn) [Example 84, 4-(4-chlorophenyl)-1-cyclopropyl-3-ethyl-5-(8-methoxy-3-methyl-[1,2,4]triazolo[4,3-a]pyridin-6-yl)-4,5-dihydropyrrolo[3,4-c]pyrazol-6(1H)-one] | 7.55 | 7.21 | 7.04
CCc1nn(CCOC)c2c1C(c1ccc(Cl)cc1)N(c1cc(C)c3nnc(C)n3c1)C2=O (stereo not drawn) [Example 87, 4-(4-chlorophenyl)-5-(3,8-dimethyl-[1,2,4]triazolo[4,3-a]pyridin-6-yl)-3-ethyl-1-(2-methoxyethyl)-4,5-dihydropyrrolo[3,4-c]pyrazol-6(1H)-one] | 7.30 | 7.23 | 7.76
CCc1nn(-c2ccnn2C)c2c1C(c1ccc(Cl)cc1)N(c1cc(C)c(=O)n(C)c1)C2=O (stereo not drawn) [Example 89, 4-(4-chlorophenyl)-5-(1,5-dimethyl-6-oxo-1,6-dihydropyridin-3-yl)-3-ethyl-1-(1-methyl-1H-pyrazol-5-yl)-4,5-dihydropyrrolo[3,4-c]pyrazol-6(1H)-one] | 7.33 | 7.24 | 7.35
Cc1nn(-c2ccnn2C)c2c1C(c1ccc(Cl)cc1)N(c1cc(C)c3nnc(C)n3c1)C2=O (stereo not drawn) [Example 90, 4-(4-chlorophenyl)-5-(3,8-dimethyl-[1,2,4]triazolo[4,3-a]pyridin-6-yl)-3-methyl-1-(1-methyl-1H-pyrazol-5-yl)-4,5-dihydropyrrolo[3,4-c]pyrazol-6(1H)-one] | 7.82 | 7.55 | 7.35
Cc1cc(N2C(=O)c3nn(C4CC4)c(C)c3C2c2ccc(Cl)cc2)cn2c(C)nnc12 (stereo not drawn) [Example 93, 4-(4-chlorophenyl)-2-cyclopropyl-5-(3,8-dimethyl-[1,2,4]triazolo[4,3-a]pyridin-6-yl)-3-methyl-4,5-dihydropyrrolo[3,4-c]pyrazol-6(2H)-one] | 7.57 | 7.51 | 7.75
Cc1nn(C2CCC2)c2c1C(c1ccc(Cl)cc1)N(c1cc(C)c(=O)n(C)c1)C2=O (stereo not drawn) [Example 94, 4-(4-chlorophenyl)-1-cyclobutyl-5-(1,5-dimethyl-6-oxo-1,6-dihydropyridin-3-yl)-3-methyl-4,5-dihydropyrrolo[3,4-c]pyrazol-6(1H)-one] | 7.62 | 7.55 | 7.66
Cc1nn(C2CC2)c2c1C(c1ccc(OC(F)(F)F)cc1)N(c1cc(C)c(=O)n(C)c1)C2=O (stereo not drawn) [Example 95, 1-cyclopropyl-5-(1,5-dimethyl-6-oxo-1,6-dihydropyridin-3-yl)-3-methyl-4-(4-(trifluoromethoxy)phenyl)-4,5-dihydropyrrolo[3,4-c]pyrazol-6(1H)-one] | 7.19 | 7.14 | 6.72
Cc1nn(C2CC2)c2c1C(c1cccc(C(F)(F)F)c1)N(c1cc(C)c(=O)n(C)c1)C2=O (stereo not drawn) [Example 96, 1-cyclopropyl-5-(1,5-dimethyl-6-oxo-1,6-dihydropyridin-3-yl)-3-methyl-4-(3-(trifluoromethyl)phenyl)-4,5-dihydropyrrolo[3,4-c]pyrazol-6(1H)-one] | 6.11 | 6.10 | 5.70
Cc1nn(C2CC2)c2c1C(c1ccc(C(F)(F)F)cc1)N(c1cc(C)c(=O)n(C)c1)C2=O (stereo not drawn) [Example 97, 1-cyclopropyl-5-(1,5-dimethyl-6-oxo-1,6-dihydropyridin-3-yl)-3-methyl-4-(4-(trifluoromethyl)phenyl)-4,5-dihydropyrrolo[3,4-c]pyrazol-6(1H)-one] | 7.05 | 6.92 | 6.84
COc1ncc(-n2nc(C)c3c2C(=O)N(c2cc(C)c(=O)n(C)c2)[C@H]3c2ccc(Cl)cc2)c(OC)n1 [Example 99, (S)-4-(4-chlorophenyl)-1-(2,4-dimethoxypyrimidin-5-yl)-5-(1,5-dimethyl-6-oxo-1,6-dihydropyridin-3-yl)-3-methyl-4,5-dihydropyrrolo[3,4-c]pyrazol-6(1H)-one] | 5.11 | 5.12 | 5.05
COc1ncc(-n2nc(C)c3c2C(=O)N(c2cc(C)c(=O)n(C)c2)[C@@H]3c2ccc(Cl)cc2)c(OC)n1 [Example 100, (R)-4-(4-chlorophenyl)-1-(2,4-dimethoxypyrimidin-5-yl)-5-(1,5-dimethyl-6-oxo-1,6-dihydropyridin-3-yl)-3-methyl-4,5-dihydropyrrolo[3,4-c]pyrazol-6(1H)-one] | 7.60 | 7.57 | 7.38
COc1ncccc1-n1nc(C)c2c1C(=O)N(c1cc(C)c3nnc(C)n3c1)C2c1ccc(Cl)cc1 (stereo not drawn) [Example 101, 4-(4-chlorophenyl)-5-(3,8-dimethyl-[1,2,4]triazolo[4,3-a]pyridin-6-yl)-1-(2-methoxypyridin-3-yl)-3-methyl-4,5-dihydropyrrolo[3,4-c]pyrazol-6(1H)-one] | 7.47 | 7.44 | 7.18
